Results reported in patent publication US10278966B2, “Method of isolating quaternary phenanthroindolizidine alkaloids with G-quaduplex DNA binding activity from Tylophra atrofolliculata, compositions comprising them and their medical use” (Macau University of Science and Technology, priority 2016, dated 2019).
Values joined by “and” are separate entries in the source; they are usually repeats but may differ in a detail not shown here. Equal entries are not always repeated.

Test system: human telomeric DNA G-quadruplex
Assay: ESI-TOF-MS G-quadruplex binding assay
Conditions: for Relative binding affinity (RBA): negative ESI-TOF-MS, 10 uM human telomeric DNA (27 nt) and 10 uM compound in 10 mM ammonium acetate, RBA = sum of complexes peaks areas / sum of G-quadruplex DNA peaks areas, means ± SD
Protocol: UV data were recorded using a Beckman DU 800 UV/vis spectrophotometer. HRESIMS were recorded on an Agilent 6230 ESI-TOF mass spectrometer. NMR spectra were obtained from Bruker Ascend™ 600 spectrometer equipped with a cyro platform. Silica gel (Devisil®, 40˜63 micron) was used for column chromatography. Silica gel plates (Merck, DC Kieselgel 60 F254) was used for TLC analysis. High-performance liquid chromatography (HPLC) was carried out on Agilent 1100, Agilent 1200 and Waters 1525-2489 apparatus with a semi-preparative column (Waters, XBridge® Prep C18, 5 μm, 250×10 mm). 27 nt human telomeric DNA (M monoisotopic=8492.4 Da, Invitrogen) was used for G-quadruplex binding assay, which was the same as the one applied in Bai, L. P. et al. PloS One 2013, 8, e53962. The G-quadruplex binding analysis was conducted on a Bruker maXis impact mass spectrometer equipped with a kdScientific syringe pump (Holliston, Mass., USA). Solvents for HPLC separation analysis were HPLC grade.
Electrospray ionization time-of-flight mass spectrometry (ESI-TOF-MS) experiments were conducted on a Bruker maXis impact mass spectrometer in the negative mode (Bai, L. P., Plos One, 2013, 8, e53962; Bai, L. P., Sci. Rep. 2014, 4, 6767). The ESI source parameters were set as follows: end plate offset voltage of 500 V, capillary voltage of 3000 V, nebulizer of 1.0 bar, dry gas flow of 4.0 L/min at 160° C. The flow rate of sample injection into the mass spectrometer was set at 3 uL/min by using a kdScientific syringe pump. Each mass spectrum was obtained by an average of at least 30 scans. The mixture of a final concentration of 10 uM nucleic acid, i.e. human telomeric DNA (27 nt) (M=8496.6 Da), and 10 uM phenanthroindolizidine alkaloid in 10 mM ammonium acetate was directly injected into mass spectrometer. Data were obtained from three parallel samples of nucleic acid-drug complex solution, and then analyzed with the software of Compass DataAnalysis.
ESI-TOF-MS was utilized to investigate the non-covalent binding capacity of compounds 1 to 7, i.e. compounds of Formulas (2) to (8) with human telomeric DNA G-quadruplex formed by the human telomeric sequence. The human telomeric sequence is known and disclosed in Bai, L. P. et al. PloS One 2013, 8, e53962. 13aS-tylophorine compound 8, i.e. compound of Formula (9):
[drawing 17] and reference G-quadruplex binder sanguinarine were used as control (Bai, L. P., Anal. Bioanal. Chem., 2008, 392, 709; Bai, L. P., Bioorg. Med. Chem., 2006, 14, 5439). […] The relative binding affinities (RBA) of tested compounds were calculated to evaluate their binding capacities to human telomeric DNA G-quadruplex using the equation: RBA=Σcomplexes peaks areas/ΣG-quadruplex DNA peaks areas

SMILES | Relative binding affinity (RBA) | RBA value, times higher than that of 2-methoxylated/hydroxylated analogues compound 5 or 1 (ratio of RBA values) | potency in RBA value, times that of 3-demethyl analogue compound 2 (ratio of RBA values)
COc1cc2c3c(c4cc(OC)c(OC)cc4c2cc1OC)CN1CCC[C@H]1C3 [compound 8, 13aS-tylophorine, reference compound] | 0.168 and 0.168 ± 0.007 |  | 
COc1ccc2c(c1)c1cc(OC)c(OC)cc1c1c[n+]3c(cc21)CCC3 [compound 7, tylophoridicine D] | 0.619 and 0.619 ± 0.016 | at least 2 times | 
COc1cc2c3cc(OC)c(OC)cc3c3c[n+]4c(cc3c2cc1OC)CCC4 [compound 5, dehydrotylophorine] | 0.290 and 0.290 ± 0.017 |  | 
COc1cc2c(cc1O)c1cc3[n+](cc1c1cc(OC)c(OC)cc21)CCC3 [compound 1, 2-demethyldehydrotylophorine] | 0.265 and 0.265 ± 0.008 |  | 
COc1cc2c(cc1O)c1cc(OC)c(O)cc1c1cc3[n+](cc21)CCC3 [compound 3, 2-hydroxylanhydrodehydrotylophorinidine] | 0.189 and 0.189 ± 0.002 |  | 
COc1cc2c(cc1O)c1cc(O)ccc1c1cc3[n+](cc21)CCC3 [compound 2, 3-demethylanhydrodehydrotylophorinidine] | 0.122 and 0.122 ± 0.007 |  | 
COc1cc2c(cc1O)c1cc(OC)c(OC)cc1c1cc3[n+](cc21)CCC3 [compound 4, 6-demethyldehydrotylophorine] | 0.238 and 0.238 ± 0.010 |  | 
COc1ccc2c(c1)c1cc(O)c(OC)cc1c1c[n+]3c(cc21)CCC3 [compound 6, an hydrodehydrotylophorinidine] | 0.437 and 0.437 ± 0.019 |  | at least 3 times
